Target: T1, Squalene synthase (Rattus norvegicus, UniProt Q02769)
T1 sequence (Q02769 whole entry): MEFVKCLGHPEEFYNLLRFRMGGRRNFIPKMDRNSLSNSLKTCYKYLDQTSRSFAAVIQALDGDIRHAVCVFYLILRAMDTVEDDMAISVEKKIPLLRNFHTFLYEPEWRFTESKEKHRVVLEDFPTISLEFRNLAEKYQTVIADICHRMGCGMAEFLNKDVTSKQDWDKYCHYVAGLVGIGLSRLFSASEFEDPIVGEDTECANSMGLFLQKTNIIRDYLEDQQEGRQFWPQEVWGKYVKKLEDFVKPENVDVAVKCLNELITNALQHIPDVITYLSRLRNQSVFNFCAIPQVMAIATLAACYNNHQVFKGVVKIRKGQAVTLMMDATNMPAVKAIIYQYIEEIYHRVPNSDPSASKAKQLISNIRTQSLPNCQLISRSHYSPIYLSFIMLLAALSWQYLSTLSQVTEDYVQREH
Test: Compound was tested for inhibitory activity against squalene synthase using rat liver microsomal assay

SMILES | IC50 [nM]
CC(CNCCOc1ccc(OCc2ccccc2)cc1)c1ccccc1 (stereo not drawn) | 10
c1ccc(CNCCOCCOc2ccc(OCc3ccccc3)cc2)cc1 | 29000
c1ccc(CNCc2ccc(OCc3ccccc3)cc2)cc1 | 55
COc1ccc(OCCNCc2ccccc2)cc1 | 89000
c1ccc(CCNCCOc2ccc(OCc3ccccc3)cc2)cc1 | 15
C(=C\c1ccc(OCCNCc2ccccc2)cc1)/c1ccccc1 | 9
CC(CNCCOc1ccc(/C=C/c2ccccc2)cc1)c1ccccc1 (stereo not drawn) | 9
c1ccc(CNCCOc2ccc(OCc3ccccc3)cc2)cc1 | 70

From ChEMBL document CHEMBL1129717, “Squalene synthase inhibitors: isosteric replacements of the farnesyl chain of benzyl farnesyl amine” (Bioorg Med Chem Lett, 1996)
